Data taken from patent publication US8829010B2, “Pyrazolo[3,4-d]pyrimidine compounds and their use as PDE2 inhibitors and/or CYP3A4 inhibitors” (Pfizer Inc., priority 2011, dated 2014).
Several values for one entry are separate records, joined by “and”; a condition that tells them apart may be missing. Equal values may be shown once. Read-outs that look alike come from different tables or passages of the source.

Assays:
[1] = target: T1, human full-length PDE2A3 enzyme (Homo sapiens (Human), UniProt O00408); assay: Recombinant human PDE2A3 inhibition by [3H]-cGMP scintillation proximity assay (SPA); assay type: biochemical
T1 sequence (O00408 whole entry): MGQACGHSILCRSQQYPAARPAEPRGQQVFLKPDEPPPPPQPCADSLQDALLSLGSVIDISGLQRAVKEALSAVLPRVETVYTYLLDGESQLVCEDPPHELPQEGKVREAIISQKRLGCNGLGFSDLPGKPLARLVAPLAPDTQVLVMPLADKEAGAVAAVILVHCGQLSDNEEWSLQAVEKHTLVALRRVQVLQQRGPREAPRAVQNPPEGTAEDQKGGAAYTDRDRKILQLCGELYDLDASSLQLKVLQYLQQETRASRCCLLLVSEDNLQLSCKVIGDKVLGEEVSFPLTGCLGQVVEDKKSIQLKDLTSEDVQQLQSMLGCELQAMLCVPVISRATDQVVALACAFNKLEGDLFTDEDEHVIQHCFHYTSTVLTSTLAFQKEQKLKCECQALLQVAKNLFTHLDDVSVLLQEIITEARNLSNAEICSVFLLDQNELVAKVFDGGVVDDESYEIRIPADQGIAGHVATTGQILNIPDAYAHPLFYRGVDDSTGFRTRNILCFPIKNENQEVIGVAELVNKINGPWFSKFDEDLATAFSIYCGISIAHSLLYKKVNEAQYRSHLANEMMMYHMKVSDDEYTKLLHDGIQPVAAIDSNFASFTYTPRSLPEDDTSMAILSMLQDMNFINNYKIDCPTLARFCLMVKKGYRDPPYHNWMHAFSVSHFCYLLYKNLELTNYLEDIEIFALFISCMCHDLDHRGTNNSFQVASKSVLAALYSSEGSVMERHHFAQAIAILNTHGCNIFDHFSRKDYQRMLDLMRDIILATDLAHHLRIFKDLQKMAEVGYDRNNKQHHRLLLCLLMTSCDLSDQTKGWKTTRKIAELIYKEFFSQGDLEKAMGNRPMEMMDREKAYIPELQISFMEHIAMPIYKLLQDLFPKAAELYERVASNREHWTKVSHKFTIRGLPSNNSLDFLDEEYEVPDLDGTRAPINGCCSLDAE

[2] = target: T1, human full-length PDE2A3 enzyme; conditions: literature values; IC50 values obtained were within 3× of these; read-out: PDE2 IC50, literature values of control compounds; cited from earlier work
CYP3A5 = CYP3A5 (Homo sapiens (Human), UniProt P20815); assay: biochemical
Chain of CYP3A5 (P20815 whole entry): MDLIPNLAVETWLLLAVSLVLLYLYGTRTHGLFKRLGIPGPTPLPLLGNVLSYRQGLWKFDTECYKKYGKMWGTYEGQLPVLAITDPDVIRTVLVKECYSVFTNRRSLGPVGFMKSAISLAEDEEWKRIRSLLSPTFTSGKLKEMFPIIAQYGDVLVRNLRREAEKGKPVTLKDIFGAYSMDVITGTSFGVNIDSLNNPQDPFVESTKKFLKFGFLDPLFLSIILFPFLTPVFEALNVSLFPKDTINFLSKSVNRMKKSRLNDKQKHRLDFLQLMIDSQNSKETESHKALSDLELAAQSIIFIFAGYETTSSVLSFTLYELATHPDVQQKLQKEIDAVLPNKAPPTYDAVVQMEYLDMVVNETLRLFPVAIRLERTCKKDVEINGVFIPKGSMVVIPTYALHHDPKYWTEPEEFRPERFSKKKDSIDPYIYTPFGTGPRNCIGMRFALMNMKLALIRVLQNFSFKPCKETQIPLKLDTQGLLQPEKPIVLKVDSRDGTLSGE

CYP3A4 = CYP3A4 (Homo sapiens (Human), UniProt P08684); assay: biochemical
Chain of CYP3A4 (P08684 whole entry): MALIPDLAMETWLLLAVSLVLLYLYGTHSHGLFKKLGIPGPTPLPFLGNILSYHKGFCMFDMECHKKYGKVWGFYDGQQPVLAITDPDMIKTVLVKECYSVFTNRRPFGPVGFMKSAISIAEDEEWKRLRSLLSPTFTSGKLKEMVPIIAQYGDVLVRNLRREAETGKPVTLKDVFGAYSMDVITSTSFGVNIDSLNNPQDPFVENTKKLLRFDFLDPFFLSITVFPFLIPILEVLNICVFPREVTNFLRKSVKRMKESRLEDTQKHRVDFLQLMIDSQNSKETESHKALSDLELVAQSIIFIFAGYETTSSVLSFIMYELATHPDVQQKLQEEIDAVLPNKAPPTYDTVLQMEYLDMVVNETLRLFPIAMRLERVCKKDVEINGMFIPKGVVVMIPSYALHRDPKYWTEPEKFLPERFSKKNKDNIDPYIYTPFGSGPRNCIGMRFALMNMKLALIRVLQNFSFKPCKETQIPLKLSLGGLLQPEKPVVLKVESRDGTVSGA

CYP3A4 versus CYP3A5 = CYP3A4 versus CYP3A5 (Homo sapiens (Human), UniProt P08684); assay: in vitro
Chain of CYP3A4 versus CYP3A5 (P08684 whole entry): as above

[3] = Geometric mean of 2-5 determinations unless otherwise indicated (a: single determination; b: 7-8 determinations)

Row | Compound | IC50 (CYP3A5) | IC50 (CYP3A4) | IC50 [1, 3] [nM] | other results
1 | 3-[5-(4-chloro-3- fluorophenyl)-1- methyl-1H-pyrazol- 4-yl]-1-methyl-4-[3- (1-methyl-1H- pyrazol-3- yl)azetidin-1-yl]-1H- pyrazolo[3,4- d]pyrimidine [Example 19] | – | – | – | IC50 [1]: < 2.87 nM
2 | CCCCCC[C@@H]([C@@H](C)O)n1cnc2c(N)ncnc21 (racemic) [EHNA, erythro-9-(2-hydroxy-3-nonyl) adenine] | – | – | – | IC50 [2]: 1700 nM
3 | Cc1ccc(-c2c(-c3nn(C)c4ncnc(N5CC[C@H](N6CCCCC6)C5)c34)cnn2C)cc1 [Example 2, 1-Methyl-3-[1-methyl-5-(4-methylphenyl)-1H-pyrazol-4-yl]-4-[(3S)-3-(piperidin-1-yl)pyrrolidin-1-yl]-1H-pyrazolo[3,4-d]pyrimidine] | 9690 nM | 65.3 nM and 122 nM | – | –
4 | Cn1ncc(-c2nn(C)c3ncnc(N4CC(F)C4)c23)c1-c1ccc(C2CC2)cc1 [Example 3, 3-[5-(4-Cyclopropylphenyl)-1-methyl-1H-pyrazol-4-yl]-4-(3-fluoroazetidin-1-yl)-1-methyl-1H-pyrazolo[3,4-d]pyrimidine] | – | – | < 1.31 | –
5 | COC(=O)NC1CN(c2ncnc3c2c(-c2cnn(C)c2-c2ccc(C4CC4)cc2)nn3C)C1 [Example 23, methyl (1-{3-[5-(4-cyclopropylphenyl)-1-methyl-1H-pyrazol-4-yl]-1-methyl-1H-pyrazolo[3,4-d]pyrimidin-4-yl}azetidin-3-yl)carbamate] | – | – | < 2.11 | –
6 | CCc1ccc(-c2c(-c3nn(C)c4ncnc(N5CC[C@H](N6CCCCC6)C5)c34)cnn2C)cc1 [Example 56, 3-[5-(4-ethylphenyl)-1-methyl-1H-pyrazol-4-yl]-1-methyl-4-[(3S)-3-(piperidin-1-yl)pyrrolidin-1-yl]-1H-pyrazolo[3,4-d]pyrimidine] | 3470 nM and 6960 nM | 39.7 nM and 71.1 nM | – | selectivity ratio (CYP3A4 versus CYP3A5; probe midazolam): 87; selectivity ratio (CYP3A4 versus CYP3A5; probe testosterone): 98; inhibition at 0.316 µM ([1]; at 316 nM, single determination): 41%
